Test results published in patent US6653258B1 (priority 1987, dated 2003).

Key:
Erysiphe graminis = assay: Foliar fungal disease test on Erysiphe graminis, plants inoculated 24 hours before treatment (Table V); type: in vivo; parameters: key: 4: no disease; 3: trace −5% of disease on untreated plants; 6-25% of disease on untreated plants; 1: 26-59% of disease on untreated plants; 60-100% of disease on untreated plants; conditions: plants inoculated 24 hours before treatment
various species of plant = assay: Plant growth regulating whole plant screen (Table VIII); type: in vivo; conditions: 4000 ppm (4 kg/ha) spray, assessed after 2-6 weeks
Protocol: This Example illustrates the plant growth regulating properties of compounds 1, 23 and 68 of Table I when tested on a whole plant screen against various species of plant. The plant species are identified in Table VII with the leaf stage at which they are sprayed.
A formulation of each chemical was applied at 4000 ppm (4 kg/ha in a 1000 l/ha field volume) using a tracksprayer and a SS8004E (Teejet) nozzle.
After spraying the plants were grown in a glasshouse with 25° C. day/22° C. night temperature. Supplementary lighting was supplied when necessary to provide an average photoperiod of 16 hours (14 hours minimum).
After 2-6 weeks in the glasshouse, depending on species and time of year, the plants were visually assessed for morphological characteristics against a control of plant sprayed with a blank formulation.

[1] = tested on: foliar fungal diseases of plants; type: in vivo; parameters: key to disease control grading, […] (VINE): 4: no disease; 3: trace −5% of disease on untreated plants; key to disease control grading, PUCCINIA RECONDITA (WHEAT) / disease control grading, VENTURIA INAEQUALIS (APPLE) / disease control grading, CERCOSPORA ARACHIDICOLA (PEANUT) / disease control grading, PH[…] (TOMATO) / disease control grading, P[…] (RICE): 4: no disease; 3: trace −5% of disease on untreated plants; 6-25% of disease on untreated plants; 1: 26-59% of disease on untreated plants; 60-100% of disease on untreated plants; conditions: applied to soil (roots) and foliage one or two days before inoculation; for disease control grading, CERCOSPORA ARACHIDICOLA (PEANUT): Cercospora arachidicola on peanut; for disease control grading, P[…] (RICE): P[…] on rice; for disease control grading, PH[…] (TOMATO): Ph[…] on tomato; for disease control grading, PUCCINIA RECONDITA (WHEAT): Puccinia recondita on wheat; for disease control grading, VENTURIA INAEQUALIS (APPLE): Venturia inaequalis on apple; for disease control grading, […] (VINE): […] on vine
[2] = tested on: Tomato plants, cv. Outdoor Girl; assay: Phytotoxicity on tomato plants, spray to maximum retention (Table VII); conditions: for phytotoxicity, linear 0-5 scale, Tomato: assessed one week after treatment, four replicates
[3] = tested on: Peanut plants, cv. Tomnut; assay: Phytotoxicity on peanut plants, root drench (Table VI); type: in vivo; conditions: for phytotoxicity, linear 0-5 scale, Peanut: 100 ppm root drench, assessed one week after treatment, four replicates
Protocol: Peanut plants, cv. Tomnut, were propagated in John Innes No. 1 compost. […] Uniform, 8-10 day-old plants were selected for the experiments.
Phytotoxicity was assessed on a linear 0- 5 scale where grade 1 ═slight damage and grade 5 ═dead plant.

[4] = 30 ppm spray to maximum retention
[5] = 100 ppm spray to maximum retention
[6] = 300 ppm spray to maximum retention

| Structure (SMILES) | disease control grading, ERYSIPHE GRAMINIS (BARLEY) (Erysiphe graminis) | disease control grading, CERCOSPORA ARACHIDICOLA (PEANUT) [1] | disease control grading, P[…] (RICE) [1] | disease control grading, PH[…] (TOMATO) [1] | disease control grading, PUCCINIA RECONDITA (WHEAT) [1] | disease control grading, VENTURIA INAEQUALIS (APPLE) [1] | disease control grading, […] (VINE) [1] | other results |
| --- | --- | --- | --- | --- | --- | --- | --- | --- |
| CO/C=C(/C(=O)OC)c1ccccc1COc1cccc(Cl)c1 [1 (Table I)] | 4 | 4 | 4 | 4 | 4 | 4 | 4 | G = Greening effect (various species of plant; Maize (MZ, Earliking)): 1 (1 = 10-30%); I = Interligular or internodal length reduction (various species of plant; Maize (MZ, Earliking)): 1 (1 = 10-30%); R = Retardation (various species of plant; Maize (MZ, Earliking)): 1 (1 = 10-30%); A = Apical damage (various species of plant; Tomato (TO, Ailsa Craig)): 3 (3 = 61-100%); P = Phytotoxicity (various species of plant; Tomato (TO, Ailsa Craig)): 2 (2 = 11-30%); R = Retardation (various species of plant; Tomato (TO, Ailsa Craig)): 3 (3 = 61-100%); T = Tillering or side shooting (various species of plant; Tomato (TO, Ailsa Craig)): 1 (1 = 10-30%) |
| CO/C=C(/C(=O)OC)c1ccccc1COc1ccc(Cl)cc1 [23 (Table I)] | 4 | 4 | 4 | 4 | 4 | 4 | 4 | A = Apical damage (various species of plant; Tomato (TO, Ailsa Craig)): 3 (3 = 61-100%); P = Phytotoxicity (various species of plant; Tomato (TO, Ailsa Craig)): 3 (3 = 31-50%); R = Retardation (various species of plant; Tomato (TO, Ailsa Craig)): 3 (3 = 61-100%) |
| CO/C=C(/C(=O)OC)c1ccccc1COc1cccnc1 [68 (Table I)] | 4 | 3 (trace −5% of disease on untreated plants) | 3 (trace −5% of disease on untreated plants) | 3 (trace −5% of disease on untreated plants) | 3 (trace −5% of disease on untreated plants) | 4 | 4 | T = Tillering or side shooting (various species of plant; Barley (BR, Atem)): 1 (1 = 10-30%) |
| CO/C=C(/C(=O)OC)c1ccccc1COc1cccc(/N=C/c2ccccc2)c1 [180 (Table I)] | 0 (60-100% of disease on untreated plants) | 4 | 2 (6-25% of disease on untreated plants) | 4 | 3 (trace −5% of disease on untreated plants) | 0 (60-100% of disease on untreated plants) | 4 |  |
| CO/C=C(/C(=O)OC)c1ccccc1COc1cccc(Oc2cccc(C)c2)c1 [181 (Table I)] | 4 | 4 | 3 (trace −5% of disease on untreated plants) | 4 | 4 | 4 | 4 |  |
| CO/C=C(/C(=O)OC)c1ccccc1COc1cccc(Oc2ccccc2Cl)c1 [182 (Table I)] | 4 | 4 | 4 | 4 | 4 | 3 (trace −5% of disease on untreated plants) | 4 |  |
| CO/C=C(/C(=O)OC)c1ccccc1COc1cccc(Oc2cccc(Br)c2)c1 [183 (Table I)] | 4 | 4 | 3 (trace −5% of disease on untreated plants) | 4 | 0 (60-100% of disease on untreated plants) | 4 | 4 |  |
| CO/C=C(/C(=O)OC)c1ccccc1COc1cccc(OCc2ccccc2)c1 [184 (Table I)] | 4 | 4 | 3 (trace −5% of disease on untreated plants) | 4 | 4 | 4 | 4 |  |
| CO/C=C(/C(=O)OC)c1ccccc1COc1cccc(Oc2ccccc2)n1 [185 (Table I)] | 4 | 4 | 4 | 4 | 4 | 2 (6-25% of disease on untreated plants) | 4 |  |
| CO/C=C(/C(=O)OC)c1ccccc1COc1cccc(Cl)c1 [Compound 1, Table I] |  |  |  |  |  |  |  | phytotoxicity, linear 0-5 scale, Tomato [2, 4]: 0.75; phytotoxicity, linear 0-5 scale, Tomato [2, 5]: 0.63; phytotoxicity, linear 0-5 scale, Tomato [2, 6]: 1.5; phytotoxicity, linear 0-5 scale, Peanut [3]: 0 |
| CO/C=C(/C(=O)OC)c1ccccc1COc1ccc(Cl)cc1 [Compound 23, Table I] |  |  |  |  |  |  |  | phytotoxicity, linear 0-5 scale, Tomato [2, 4]: 0.3; phytotoxicity, linear 0-5 scale, Tomato [2, 5]: 1.5; phytotoxicity, linear 0-5 scale, Tomato [2, 6]: 2.3; phytotoxicity, linear 0-5 scale, Peanut [3]: 0.13 |
| CO/C=C(/C(=O)OC)c1ccccc1COc1cccc(Cl)c1 [Compound No. 1 of Table I, (E)-methyl 2-[2-(3-chlorophenoxymethyl)phenyl]-3-methoxypropenoate] |  |  |  |  |  |  |  | phytotoxicity relative to the unsubstituted comparative compound ([2]; sprayed to maximum retention, assessed one week after (final) treatment (conclusion from Table VII)): less phytotoxic; phytotoxicity relative to the unsubstituted comparative compound ([3]; root drench, assessed one week after treatment (conclusion from Table VI)): less phytotoxic |
| CO/C=C(/C(=O)OC)c1ccccc1COc1ccccc1 [comparative compound, reference compound] |  |  |  |  |  |  |  | phytotoxicity, linear 0-5 scale, Tomato [2, 4]: 2.8; phytotoxicity, linear 0-5 scale, Tomato [2, 5]: 3.4; phytotoxicity, linear 0-5 scale, Tomato [2, 6]: 3.0; phytotoxicity, linear 0-5 scale, Peanut [3]: 1.5 |
